{"source": "patent US6608036B1", "about": "“Oligonucleotide N3′→P5′ thiophosphoramidates: their synthesis and administration to treat neoplasms” (Geron Corporation, priority 1999, dated 2003)", "key": {"[1]": {"system": "telomerase (affinity-purified extract from 293 cells over-expressing hTERT)", "experiment": "Bio-Tel FlashPlate telomerase activity assay", "type": "biochemical, human", "conditions": "telomerase inhibition"}, "HME50-5E cells": {"system": "HME50-5E cells", "experiment": "Reduction of telomere length in tumor cells (TRF analysis)", "type": "cell-based, human", "conditions": "for telomere length by TRF analysis: about 0.5 μM, measured at 10, 20, 40 and 80 days (FIG. 7)", "experimental": "Colonies of human breast epithelial cells (spontaneously immortalized) were prepared using standard methods and materials. Colonies were prepared by seeding 15-centimeter dishes with about 10^6 cells in each dish. The dishes were incubated to allow the cell colonies to grow to about 80% confluence, at which time each of the colonies were divided into two groups. One group was exposed to a subacute dose of thiophosphoramidate polynucleotide SEQ ID NO:2 at a predetermined concentration (e.g., between about 100 nM and about 20 μM) for a period of about 4-8 hours after plating following the split. The second group of cells were similarly exposed to mismatch control oligonucleotide SEQ ID NO:4.\nEach group of cells is then allowed to continue to divide, and the groups are split evenly again (near confluence). The same number of cells were seeded for continued growth. The test thiophosphoramidate oligonucleotide or control oligonucleotide was added every fourth day to the samples at the same concentration delivered initially. In one experiment the cells were additionally treated with FuGENE6™ (Boehringer-Mannhiem) following manufacturers instructions. FuGENE6™ enhances oligonucleotide uptake by the cells.\nTelomere length was determined by digesting the DNA of the cell samples using restriction enzymes specific for sequences other than the repetitive T2AG3 sequence of human telomeres (TRF analysis). The digested DNA was separated by size using standard techniques of gel electrophoresis to determine the lengths of the telomeric repeats, which appear, after probing with a telomere DNA probe, on the gel as a smear of high-molecular weight DNA (approximately 2 Kb-15 Kb). FIGS. 4 and 5 show examples of such experiments.\nThe HME50-5E cells were incubated with one of the thiophosphoramidate polynucleotides shown in SEQ ID NOs:2 and 8. The mismatch oligonucleotide SEQ ID NO:4 was used as a control. All polynucleotides were used at a concentration of about 0.5 μM using the protocol described above. The length of the telomeres were measured at 10, 20, 40 and 80 days. […] In addition to the HME50-5E cells described above, this assay can be performed with any telomerase-positive cell line, such as HeLa cells or HEK-293 cells."}, "[2]": {"system": "complementary natural RNA oligomer", "experiment": "Thermal dissociation (Tm) of duplexes with complementary RNA strand", "type": "binding", "conditions": "150 mM NaCl; for Tm, melting temperature of the duplexes: 10 mM sodium phosphate buffer pH 7.4, ±0.5° C.", "experimental": "^31P NMR spectra were obtained on a Varian 400 Mhz spectrometer. ^31P NMR spectra were referenced against 85% aqueous phosphoric acid. Anion exchange HPLC was performed using a Dionex DX 500 Chromatography System, with a Pharmacia Bitotech Mono Q HR 5/5 or 10/16 ion exchange columns. Mass spectral analysis was performed by Mass Consortium, San Diego, Calif. MALDI-TOF analysis of oligonucleotides was obtained using a PerSpective Biosystems Voyager Elite mass spectrometer with delayed extraction. Thermal dissociation experiments were conducted on a Cary Bio 100 UV-Vis spectrometer.\nDuplex formation properties of oligonucleotide phosphoramidates with complementary RNA strand were evaluated using thermal dissociation experiments. […] Also, the increase in the thermal stability of duplexes was similar to that observed for the phosphoramidate oligomers."}, "[3]": {"conditions": "40% aqueous acetic acid at room temperature"}, "[4]": {"conditions": "phosphoramidate backbone, read-out: IC50(nM) phosphoramidate"}, "[5]": {"conditions": "thiophosphoramidate backbone, read-out: IC50(nM) thiophosphoramidate"}}, "note": "Like-named read-outs stand apart in the source and are kept apart here."}
{"substance": "5′-TAGGTGTAAGCAA-3′ (listed as DNA, chemistry not fully specified) [SEQ ID NO:4 phosphoramidate, N3′→P5′ phosphoramidate mismatch control, reference compound]", "values": [{"measurement": "IC50", "setting": "[1]; [4]", "value": 1000, "unit": "nM"}]}
{"substance": "5′-TAGGTGTAAGCAA-3′ (listed as DNA, chemistry not fully specified) [SEQ ID NO:4 thiophosphoramidate]", "values": [{"measurement": "IC50", "setting": "[1]; [5]", "value": 79.3, "unit": "nM"}]}
{"substance": "CAGTTAGGGTTAG (listed as DNA, chemistry not fully specified) [SEQ ID NO:8 thiophosphoramidate]", "values": [{"measurement": "telomere length by TRF analysis", "setting": "HME50-5E cells; HME50-5E cells", "value": "effective in reducing telomere length"}, {"measurement": "telomere size compared to control cells", "setting": "HME50-5E cells; even at lowest concentration tested (1 nM) (FIG. 5)", "value": "telomere size was reduced compared to the control cells"}]}
{"substance": "5′-GTTAGGGTTAG-3′ (listed as DNA, chemistry not fully specified) [SEQ ID NO:1 phosphoramidate]", "values": [{"measurement": "−Tm, increase of Tm relative to the natural phosphodiester counterpart", "setting": "[2]; 10 mM sodium phosphate buffer pH 7.4, listed as SEQ ID NO:1 np", "value": 27.9, "unit": "°C"}, {"measurement": "Tm, melting temperature of the duplexes", "setting": "[2]; listed as SEQ ID NO:1 np", "value": 72.1, "unit": "°C"}, {"measurement": "IC50", "setting": "[1]; [4]", "value": 1.9, "unit": "nM"}]}
{"substance": "5′-TAGGGTTAGACAA-3′ [SEQ ID NO:2 phosphoramidate]", "values": [{"measurement": "Acid Stability, half-live of oligonucleotide", "setting": "[3]; listed as SEQ ID NO:2 np", "value": 0.5, "unit": "h"}, {"measurement": "−Tm, increase of Tm relative to the natural phosphodiester counterpart", "setting": "[2]; 10 mM sodium phosphate buffer pH 7.4, listed as SEQ ID NO:2 np", "value": 26.5, "unit": "°C"}, {"measurement": "Tm, melting temperature of the duplexes", "setting": "[2]; listed as SEQ ID NO:2 np", "value": 71.7, "unit": "°C"}]}
{"substance": "5′-TAGGGTTAGACAA-3′ (thiophosphoramidate backbone, chemistry not fully specified) [SEQ ID NO:2 thiophosphoramidate]", "values": [{"measurement": "telomere size compared to control cells", "setting": "HME50-5E cells; HME50-5E cells coincubated with FuGENE6, even at lowest concentration tested (100 nM) (FIG. 4)", "value": "telomere size was reduced compared to the control cells"}, {"measurement": "telomere length by TRF analysis", "setting": "HME50-5E cells; HME50-5E cells", "value": "effective in reducing telomere length"}, {"measurement": "telomere length", "setting": "HME50-5E cells; HME50-5E cells, absence of FuGENE6, 1-20 μM (FIG. 4)", "value": "large decrease in telomere length"}, {"measurement": "telomere length (inhibition of telomerase activity)", "setting": "HME50-5E cells; treatment of HME50-5E human breast epithelial cells", "value": "decrease in telomere length"}, {"measurement": "−Tm, increase of Tm relative to the natural phosphodiester counterpart", "setting": "[2]; 10 mM sodium phosphate buffer pH 7.4", "value": 24.8, "unit": "°C"}, {"measurement": "Tm, melting temperature of the duplexes", "setting": "[2]", "value": 70.0, "unit": "°C"}, {"measurement": "IC50", "setting": "[1]; [5]", "value": 0.41, "unit": "nM"}]}
{"substance": "5′-GTTAGGGTTAG-3′ (listed as DNA, chemistry not fully specified) [SEQ ID NO:1 thiophosphoramidate]", "values": [{"measurement": "−Tm, increase of Tm relative to the natural phosphodiester counterpart", "setting": "[2]; 10 mM sodium phosphate buffer pH 7.4, listed as SEQ ID NO:1 nps", "value": 27.3, "unit": "°C"}, {"measurement": "Tm, melting temperature of the duplexes", "setting": "[2]; listed as SEQ ID NO:1 nps", "value": 71.5, "unit": "°C"}, {"measurement": "IC50", "setting": "[1]; [5]", "value": 0.89, "unit": "nM"}]}
{"substance": "5′-GTTGAGTGTAG-3′ (listed as DNA, chemistry not fully specified) [SEQ ID NO:3 thiophosphoramidate]", "values": [{"measurement": "IC50", "setting": "[1]; [5]", "value": 177, "unit": "nM"}]}
{"substance": "TAGGGTTAGACAA (DNA, all phosphodiester, methylation of C not given here) [SEQ ID NO:2 po, natural phosphodiester oligomer]", "values": [{"measurement": "Tm, melting temperature of the duplexes", "setting": "[2]", "value": 45.2, "unit": "°C"}]}
{"substance": "GTTAGGGTTAG (unmodified DNA) [SEQ ID NO:1 po, natural phosphodiester oligomer]", "values": [{"measurement": "Tm, melting temperature of the duplexes", "setting": "[2]", "value": 44.2, "unit": "°C"}]}
{"substance": "5′-TAGGGTTAGACAA-3′ [SEQ ID NO:2 thiophosphoramidate] (thiophosphoramidate backbone, chemistry not fully specified)", "values": [{"measurement": "Acid Stability, half-live of oligonucleotide", "setting": "[3]; listed as SEQ ID NO:2 nps", "value": 6, "unit": "h"}]}
{"substance": "5′-GTTGAGTGTAG-3′ (listed as DNA, chemistry not fully specified) [SEQ ID NO:3 phosphoramidate, N3′→P5′ phosphoramidate mismatch control, reference compound]", "values": [{"measurement": "IC50", "setting": "[1]; [4]", "value": 1000, "unit": "nM"}]}
